{"source": "ChEMBL document CHEMBL3994622", "about": "“Design and synthesis of new RAF kinase-inhibiting antiproliferative quinoline derivatives. Part 2: Diarylurea derivatives” (Eur J Med Chem, 2017)", "key": {"[1]": {"test_system": "COLO 205", "experiment": "Growth inhibition of human COLO205 cells assessed as cell growth at 0.05 uM incubated for 48 hrs by sulforhodamine B assay relative to control", "assay_type": "functional", "conditions": "COLO 205, 48 h, read-out: Activity"}, "[2]": {"test_system": "SF-295", "experiment": "Growth inhibition of human SF295 cells assessed as cell growth at 0.005 uM incubated for 48 hrs by sulforhodamine B assay relative to control", "assay_type": "functional", "conditions": "SF-295, 48 h, read-out: Activity"}, "[3]": {"test_system": "NCI-H23", "experiment": "Growth inhibition of human NCI-H23 cells assessed as cell growth at 50 uM incubated for 48 hrs by sulforhodamine B assay relative to control", "assay_type": "functional", "conditions": "NCI-H23, 48 h, read-out: Activity"}, "[4]": {"test_system": "IGROV-1", "experiment": "Growth inhibition of human IGROV1 cells assessed as cell growth at 50 uM incubated for 48 hrs by sulforhodamine B assay relative to control", "assay_type": "functional", "conditions": "IGROV-1, 48 h, read-out: Activity"}, "[5]": {"test_system": "EKVX", "experiment": "Growth inhibition of human EKVX cells assessed as cell growth at 5 uM incubated for 48 hrs by sulforhodamine B assay relative to control", "assay_type": "functional", "conditions": "read-out: Activity"}, "[6]": {"test_system": "T47D", "experiment": "Growth inhibition of human T47D cells assessed as cell growth at 5 uM incubated for 48 hrs by sulforhodamine B assay relative to control", "assay_type": "functional", "conditions": "read-out: Activity"}, "[7]": {"test_system": "A549", "experiment": "Growth inhibition of human A549/ATCC cells assessed as cell growth at 0.005 uM incubated for 48 hrs by sulforhodamine B assay relative to control", "assay_type": "functional", "conditions": "A549, 48 h, read-out: Activity"}, "[8]": {"test_system": "HCT-116", "experiment": "Growth inhibition of human HCT116 cells assessed as cell growth at 50 uM incubated for 48 hrs by sulforhodamine B assay relative to control", "assay_type": "functional", "conditions": "HCT-116, 48 h, read-out: Activity"}, "[9]": {"test_system": "NCI/ADR-RES", "experiment": "Growth inhibition of human NCI/ADR-RES cells assessed as cell growth at 0.005 uM incubated for 48 hrs by sulforhodamine B assay relative to control", "assay_type": "functional", "conditions": "read-out: Activity"}, "[10]": {"test_system": "M14", "experiment": "Growth inhibition of human M14 cells assessed as cell growth at 0.005 uM incubated for 48 hrs by sulforhodamine B assay relative to control", "assay_type": "functional", "conditions": "M14, 48 h, read-out: Activity"}, "[11]": {"test_system": "SNB-19", "experiment": "Growth inhibition of human SNB19 cells assessed as cell growth at 0.005 uM incubated for 48 hrs by sulforhodamine B assay relative to control", "assay_type": "functional", "conditions": "SNB-19, 48 h, read-out: Activity"}, "[12]": {"test_system": "RPMI-8226", "experiment": "Growth inhibition of human RPMI8226 cells assessed as cell growth at 0.5 uM incubated for 48 hrs by sulforhodamine B assay relative to control", "assay_type": "functional", "conditions": "RPMI-8226, 48 h, read-out: Activity"}, "[13]": {"test_system": "SR", "experiment": "Growth inhibition of human SR cells assessed as cell growth at 0.05 uM incubated for 48 hrs by sulforhodamine B assay relative to control", "assay_type": "functional", "conditions": "read-out: Activity"}, "[14]": {"test_system": "NCI-H322M", "experiment": "Growth inhibition of human NCI-H322M cells assessed as cell growth at 0.005 uM incubated for 48 hrs by sulforhodamine B assay relative to control", "assay_type": "functional", "conditions": "read-out: Activity"}, "[15]": {"test_system": "NCI-H23", "experiment": "Growth inhibition of human NCI-H23 cells assessed as cell growth at 0.005 uM incubated for 48 hrs by sulforhodamine B assay relative to control", "assay_type": "functional", "conditions": "NCI-H23, 48 h, read-out: Activity"}, "[16]": {"test_system": "SR", "experiment": "Growth inhibition of human SR cells assessed as cell growth at 0.5 uM incubated for 48 hrs by sulforhodamine B assay relative to control", "assay_type": "functional", "conditions": "read-out: Activity"}, "[17]": {"test_system": "OVCAR-4", "experiment": "Growth inhibition of human OVCAR4 cells assessed as cell growth at 0.005 uM incubated for 48 hrs by sulforhodamine B assay relative to control", "assay_type": "functional", "conditions": "OVCAR-4, 48 h, read-out: Activity"}, "[18]": {"test_system": "HOP-62", "experiment": "Growth inhibition of human HOP62 cells assessed as cell growth at 5 uM incubated for 48 hrs by sulforhodamine B assay relative to control", "assay_type": "functional", "conditions": "HOP-62, 48 h, read-out: Activity"}, "[19]": {"test_system": "SNB-19", "experiment": "Growth inhibition of human SNB19 cells assessed as cell growth at 0.5 uM incubated for 48 hrs by sulforhodamine B assay relative to control", "assay_type": "functional", "conditions": "SNB-19, 48 h, read-out: Activity"}, "[20]": {"test_system": "HT-29", "experiment": "Growth inhibition of human HT-29 cells assessed as cell growth at 0.5 uM incubated for 48 hrs by sulforhodamine B assay relative to control", "assay_type": "functional", "conditions": "HT-29, 48 h, read-out: Activity"}, "[21]": {"test_system": "SK-OV-3", "experiment": "Growth inhibition of human SKOV3 cells assessed as cell growth at 0.005 uM incubated for 48 hrs by sulforhodamine B assay relative to control", "assay_type": "functional", "conditions": "SK-OV-3, 48 h, read-out: Activity"}, "[22]": {"test_system": "HL-60(TB)", "experiment": "Growth inhibition of human HL-60(TB) cells assessed as cell growth at 50 uM incubated for 48 hrs by sulforhodamine B assay relative to control", "assay_type": "functional", "conditions": "HL-60, 48 h, read-out: Activity"}, "[23]": {"test_system": "HCT-15", "experiment": "Growth inhibition of human HCT15 cells assessed as cell growth at 50 uM incubated for 48 hrs by sulforhodamine B assay relative to control", "assay_type": "functional", "conditions": "HCT-15, 48 h, read-out: Activity"}, "[24]": {"test_system": "SW-620", "experiment": "Growth inhibition of human SW620 cells assessed as cell growth at 50 uM incubated for 48 hrs by sulforhodamine B assay relative to control", "assay_type": "functional", "conditions": "SW-620, 48 h, read-out: Activity"}, "[25]": {"test_system": "NCI-H226", "experiment": "Growth inhibition of human NCI-H226 cells assessed as cell growth at 0.005 uM incubated for 48 hrs by sulforhodamine B assay relative to control", "assay_type": "functional", "conditions": "NCI-H226, 48 h, read-out: Activity"}, "[26]": {"test_system": "TK-10", "experiment": "Growth inhibition of human TK10 cells assessed as cell growth at 50 uM incubated for 48 hrs by sulforhodamine B assay relative to control", "assay_type": "functional", "conditions": "TK-10, 48 h, read-out: Activity"}, "[27]": {"test_system": "SR", "experiment": "Growth inhibition of human SR cells assessed as cell growth at 0.005 uM incubated for 48 hrs by sulforhodamine B assay relative to control", "assay_type": "functional", "conditions": "read-out: Activity"}, "[28]": {"test_system": "SK-MEL-28", "experiment": "Growth inhibition of human SK-MEL-28 cells assessed as cell growth at 0.005 uM incubated for 48 hrs by sulforhodamine B assay relative to control", "assay_type": "functional", "conditions": "SK-MEL-28, 48 h, read-out: Activity"}, "[29]": {"test_system": "SK-MEL-2", "experiment": "Growth inhibition of human SK-MEL-2 cells assessed as cell growth at 0.5 uM incubated for 48 hrs by sulforhodamine B assay relative to control", "assay_type": "functional", "conditions": "SK-MEL-2, 48 h, read-out: Activity"}, "[30]": {"test_system": "HL-60(TB)", "experiment": "Growth inhibition of human HL-60(TB) cells assessed as cell growth at 0.005 uM incubated for 48 hrs by sulforhodamine B assay relative to control", "assay_type": "functional", "conditions": "HL-60, 48 h, read-out: Activity"}, "[31]": {"target": "Dual specificity mitogen-activated protein kinase kinase 1 (Homo sapiens) (UniProt Q02750)", "sequence (Q02750 whole entry)": "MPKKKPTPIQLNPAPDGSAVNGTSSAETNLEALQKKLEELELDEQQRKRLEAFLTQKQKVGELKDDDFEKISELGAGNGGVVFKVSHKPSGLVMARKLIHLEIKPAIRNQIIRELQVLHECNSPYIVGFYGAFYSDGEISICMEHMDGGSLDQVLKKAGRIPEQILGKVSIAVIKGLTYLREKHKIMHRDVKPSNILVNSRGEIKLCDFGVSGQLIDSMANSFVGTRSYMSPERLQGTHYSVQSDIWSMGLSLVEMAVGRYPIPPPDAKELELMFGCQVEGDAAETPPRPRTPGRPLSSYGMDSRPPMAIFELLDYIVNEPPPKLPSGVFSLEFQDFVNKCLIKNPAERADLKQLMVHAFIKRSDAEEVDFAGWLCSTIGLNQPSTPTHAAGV", "experiment": "Inhibition of human MEK1 at 10 uM using ERK2 as substrate in presence of [33P]ATP by Hotspot assay relative to control"}, "[32]": {"target": "Mitogen-activated protein kinase 14 (Homo sapiens) (UniProt Q16539)", "sequence (Q16539 whole entry)": "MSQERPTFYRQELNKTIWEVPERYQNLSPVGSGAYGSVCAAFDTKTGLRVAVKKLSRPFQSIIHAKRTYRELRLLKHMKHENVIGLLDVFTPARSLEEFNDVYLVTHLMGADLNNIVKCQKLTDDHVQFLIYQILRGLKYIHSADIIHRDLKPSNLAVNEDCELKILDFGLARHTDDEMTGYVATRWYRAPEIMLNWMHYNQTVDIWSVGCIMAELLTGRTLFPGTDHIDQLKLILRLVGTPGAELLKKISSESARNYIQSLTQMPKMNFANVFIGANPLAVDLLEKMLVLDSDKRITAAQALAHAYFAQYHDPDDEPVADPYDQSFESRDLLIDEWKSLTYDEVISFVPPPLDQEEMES", "experiment": "Inhibition of human MAPK p38allpha at 10 uM using myelin basic protein as substrate in presence of [33P]ATP by Hotspot assay relative to control"}, "[33]": {"test_system": "LOX IMVI", "experiment": "Growth inhibition of human LOXIMVI cells assessed as cell growth at 30 uM incubated for 48 hrs by sulforhodamine B assay relative to control", "assay_type": "functional", "conditions": "read-out: Activity"}, "[34]": {"test_system": "LOX IMVI", "experiment": "Growth inhibition of human LOXIMVI cells assessed as cell growth at 0.3 uM incubated for 48 hrs by sulforhodamine B assay relative to control", "assay_type": "functional", "conditions": "read-out: Activity"}}}
{"compound": "COc1cc2cc(Oc3ccc(NC(=O)Nc4cccc(C(F)(F)F)c4)cc3)c(C)nc2cc1OC", "values": [{"measurement": "growth at 0.05 µM", "setting": "[1]", "value": 94, "unit": "%"}, {"measurement": "growth at 0.005 µM", "setting": "[2]", "value": 90, "unit": "%"}, {"measurement": "growth at 50 µM", "setting": "[3]", "value": -42, "unit": "%"}, {"measurement": "growth at 50 µM", "setting": "[4]", "value": -14, "unit": "%"}, {"measurement": "growth at 5 µM", "setting": "[5]", "value": 6, "unit": "%"}, {"measurement": "growth at 5 µM", "setting": "[6]", "value": 7, "unit": "%"}, {"measurement": "growth at 0.005 µM", "setting": "[7]", "value": 98, "unit": "%"}, {"measurement": "growth at 50 µM", "setting": "[8]", "value": -86, "unit": "%"}, {"measurement": "growth at 0.005 µM", "setting": "[9]", "value": 105, "unit": "%"}, {"measurement": "growth at 0.005 µM", "setting": "[10]", "value": 98, "unit": "%"}, {"measurement": "growth at 0.005 µM", "setting": "[11]", "value": 92, "unit": "%"}, {"measurement": "growth at 0.5 µM", "setting": "[12]", "value": 86, "unit": "%"}, {"measurement": "growth at 0.05 µM", "setting": "[13]", "value": 93, "unit": "%"}, {"measurement": "growth at 0.005 µM", "setting": "[14]", "value": 91, "unit": "%"}, {"measurement": "growth at 0.005 µM", "setting": "[15]", "value": 96, "unit": "%"}, {"measurement": "growth at 0.5 µM", "setting": "[16]", "value": 91, "unit": "%"}, {"measurement": "growth at 0.005 µM", "setting": "[17]", "value": 92, "unit": "%"}, {"measurement": "growth at 5 µM", "setting": "[18]", "value": 25, "unit": "%"}, {"measurement": "growth at 0.5 µM", "setting": "[19]", "value": 96, "unit": "%"}, {"measurement": "growth at 0.5 µM", "setting": "[20]", "value": 112, "unit": "%"}, {"measurement": "growth at 0.005 µM", "setting": "[21]", "value": 98, "unit": "%"}, {"measurement": "growth at 50 µM", "setting": "[22]", "value": -43, "unit": "%"}, {"measurement": "growth at 50 µM", "setting": "[23]", "value": -10, "unit": "%"}, {"measurement": "growth at 50 µM", "setting": "[24]", "value": -37, "unit": "%"}, {"measurement": "growth at 0.005 µM", "setting": "[25]", "value": 96, "unit": "%"}, {"measurement": "growth at 50 µM", "setting": "[26]", "value": -46, "unit": "%"}, {"measurement": "growth at 0.005 µM", "setting": "[27]", "value": 93, "unit": "%"}, {"measurement": "growth at 0.005 µM", "setting": "[28]", "value": 101, "unit": "%"}, {"measurement": "growth at 0.5 µM", "setting": "[29]", "value": 108, "unit": "%"}, {"measurement": "growth at 0.005 µM", "setting": "[30]", "value": 104, "unit": "%"}]}
{"compound": "COc1cc2cc(Oc3ccc(NC(=O)Nc4ccc(Cl)c(C(F)(F)F)c4)cc3)c(C)nc2cc1OC", "values": [{"measurement": "inhibition", "setting": "[31]", "value": -0.258, "unit": "%"}, {"measurement": "inhibition", "setting": "[32]", "value": 56.4, "unit": "%"}, {"measurement": "growth at 30 µM", "setting": "[33]", "value": -100, "unit": "%"}, {"measurement": "growth at 0.3 µM", "setting": "[34]", "value": 101, "unit": "%"}]}
